Assay results: PubChem BioAssay (NCI)
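GI50: concentration for 50% inhibition of growth. The concentration for full growth arrest is given as TGI.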

Legend:
Experiment in all cases: NCI tumour cell line growth inhibition, 384-well format
[1] = test system: NCI/ADR-RES ovarian
[2] = test system: UACC-257 melanoma
[3] = test system: HOP-92 NSCLC
[4] = test system: SK-MEL-5 melanoma
[5] = test system: ACHN renal
[6] = test system: SR leukemia
[7] = test system: MOLT-4 leukemia
[8] = test system: T-47D breast
[9] = test system: OVCAR-5 ovarian
[10] = test system: HCT-116 colon
[11] = test system: HL-60(TB) leukemia
[12] = test system: RXF 393 renal
[13] = test system: TK-10 renal
[14] = test system: NCI-H460 NSCLC
[15] = test system: U251 glioblastoma
[16] = test system: NCI-H522 lung
[17] = test system: COLO 205 colon
[18] = test system: HCC-2998 colon
[19] = test system: SF-295 CNS
[20] = test system: MCF7 breast
[21] = test system: SK-MEL-28 melanoma
[22] = test system: HS 578T breast
[23] = test system: KM12 colon
[24] = test system: A549 NSCLC
[25] = test system: CAKI-1 renal
[26] = test system: SF-268 CNS
[27] = test system: MDA-MB-435 melanoma
[28] = test system: SF-539 CNS
[29] = test system: MDA-MB-468 breast
[30] = test system: BT-549 breast
[31] = test system: LOX IMVI melanoma
[32] = test system: MDA-MB-231 breast
[33] = test system: M14 melanoma
[34] = test system: PC-3 prostate
[35] = test system: SNB-19 CNS
[36] = test system: HT29 colon
[37] = test system: HCT-15 colon
[38] = test system: MALME-3M melanoma
[39] = test system: OVCAR-8 ovarian
[40] = test system: DU-145 prostate
[41] = test system: NCI-H226 lung
[42] = test system: SNB-75 CNS
[43] = test system: A498 renal
[44] = test system: EKVX NSCLC
[45] = test system: IGROV1 ovarian
[46] = test system: NCI-H23 lung
[47] = test system: NCI-H322M lung
[48] = test system: SN12C renal
[49] = test system: HOP-62 NSCLC
[50] = test system: RPMI-8226 leukemia
[51] = test system: OVCAR-3 ovarian
[52] = test system: SK-OV-3 ovarian
[53] = test system: UACC-62 melanoma
[54] = test system: OVCAR-4 ovarian

Question: What does the source list for O=C(Oc1ccc([N+](=O)[O-])cc1)N1CCN(Cc2cccc(Oc3ccccc3)c2)CC1?
Answer: GI50 [1]: 27.5 µM; TGI [1]: > 100 µM; GI50 [2]: 23.2 µM; TGI [2]: > 100 µM; GI50 [3]: > 100 µM; TGI [3]: > 100 µM; GI50 [4]: 18 µM; TGI [4]: 55.2 µM; GI50 [5]: > 100 µM; TGI [5]: > 100 µM; GI50 [6]: 16.7 µM; TGI [6]: 32.9 µM; GI50 [7]: 41.4 µM; TGI [7]: > 100 µM; GI50 [8]: 30.6 µM; TGI [8]: > 100 µM; GI50 [9]: > 100 µM; TGI [9]: > 100 µM; GI50 [10]: 42.7 µM; TGI [10]: > 100 µM; GI50 [11]: 13.2 µM; TGI [11]: 34.2 µM; GI50 [12]: 48 µM; TGI [12]: > 100 µM; GI50 [13]: 46.7 µM; TGI [13]: > 100 µM; GI50 [14]: 21.6 µM; TGI [14]: 59.6 µM; GI50 [15]: > 100 µM; TGI [15]: > 100 µM; GI50 [16]: 22.9 µM; TGI [16]: > 100 µM; GI50 [17]: > 100 µM; TGI [17]: > 100 µM; GI50 [18]: 47.3 µM; TGI [18]: > 100 µM; GI50 [19]: > 100 µM; TGI [19]: > 100 µM; GI50 [20]: 31 µM; TGI [20]: > 100 µM; GI50 [21]: > 100 µM; TGI [21]: > 100 µM; GI50 [22]: 92.3 µM; TGI [22]: > 100 µM; GI50 [23]: 99.3 µM; TGI [23]: > 100 µM; GI50 [24]: > 100 µM; TGI [24]: > 100 µM; GI50 [25]: > 100 µM; TGI [25]: > 100 µM; GI50 [26]: > 100 µM; TGI [26]: > 100 µM; GI50 [27]: > 100 µM; TGI [27]: > 100 µM; GI50 [28]: > 100 µM; TGI [28]: > 100 µM; GI50 [29]: 20.6 µM; TGI [29]: > 100 µM; GI50 [30]: 67.1 µM; TGI [30]: > 100 µM; GI50 [31]: 53.9 µM; TGI [31]: > 100 µM; GI50 [32]: > 100 µM; TGI [32]: > 100 µM; GI50 [33]: > 100 µM; TGI [33]: > 100 µM; GI50 [34]: > 100 µM; TGI [34]: > 100 µM; GI50 [35]: > 100 µM; TGI [35]: > 100 µM; GI50 [36]: 51.6 µM; TGI [36]: > 100 µM; GI50 [37]: 49.2 µM; TGI [37]: > 100 µM; GI50 [38]: > 100 µM; TGI [38]: > 100 µM; GI50 [39]: > 100 µM; TGI [39]: > 100 µM; GI50 [40]: > 100 µM; TGI [40]: > 100 µM; GI50 [41]: > 100 µM; TGI [41]: > 100 µM; GI50 [42]: > 100 µM; TGI [42]: > 100 µM; GI50 [43]: 42.1 µM; TGI [43]: > 100 µM; GI50 [44]: 44.1 µM; TGI [44]: > 100 µM; GI50 [45]: > 100 µM; TGI [45]: > 100 µM; GI50 [46]: 53.8 µM; TGI [46]: > 100 µM; GI50 [47]: 46.2 µM; TGI [47]: > 100 µM; GI50 [48]: 33.8 µM; TGI [48]: > 100 µM; GI50 [49]: > 100 µM; TGI [49]: > 100 µM; GI50 [50]: 25.4 µM; TGI [50]: > 100 µM; GI50 [51]: > 100 µM; TGI [51]: > 100 µM; GI50 [52]: > 100 µM; TGI [52]: > 100 µM; GI50 [53]: > 100 µM; TGI [53]: > 100 µM; GI50 [54]: 30.9 µM; TGI [54]: > 100 µM
